Measurements published in PubChem BioAssay (NCI).
Where “and” joins values, the source holds several entries; their conditions need not be identical. Identical values can stand only once.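 Five concentrations, 48 hours, 96-well plates. GI50 marks 50% less growth. TGI is the concentration that stops growth completely.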

What was measured:
Assay in all cases: DTP human tumour cell line panel, 48 h
IGROV1 ovarian = test system: IGROV1 ovarian
KM12 colon = test system: KM12 colon
NCI-H23 lung = test system: NCI-H23 lung
NCI-H522 lung = test system: NCI-H522 lung
OVCAR-5 ovarian = test system: OVCAR-5 ovarian
OVCAR-8 ovarian = test system: OVCAR-8 ovarian
SF-268 CNS = test system: SF-268 CNS
SK-MEL-5 melanoma = test system: SK-MEL-5 melanoma
UACC-257 melanoma = test system: UACC-257 melanoma
BT-549 breast = test system: BT-549 breast
DU-145 prostate = test system: DU-145 prostate
MDA-N = test system: MDA-N
T-47D breast = test system: T-47D breast

Compound | TGI (IGROV1 ovarian) | TGI (KM12 colon) | GI50 (NCI-H23 lung) | TGI (NCI-H23 lung) | GI50 (NCI-H522 lung) | TGI (NCI-H522 lung) | GI50 (OVCAR-5 ovarian) | TGI (OVCAR-5 ovarian) | TGI (OVCAR-8 ovarian) | GI50 (SF-268 CNS) | TGI (SF-268 CNS) | TGI (SK-MEL-5 melanoma) | GI50 (UACC-257 melanoma) | TGI (UACC-257 melanoma) | TGI (BT-549 breast) | TGI (DU-145 prostate) | TGI (MDA-N) | TGI (T-47D breast)
CSc1nc(-c2ccc(Cl)cc2)c(C#N)c(=O)n1C1OC(COC(C)=O)C(OC(C)=O)C(OC(C)=O)C1OC(C)=O (configuration not stated) | > 100 µM | > 100 µM | 22.2 µM and > 100 µM | > 100 µM | 12.1 µM and > 100 µM | 29.2 µM and > 100 µM | 31.3 µM and > 100 µM | > 100 µM | > 100 µM | 12.4 µM and > 100 µM | 55.2 µM and > 100 µM | > 100 µM | 14.5 µM and > 100 µM | 38.8 µM and > 100 µM | – | – | – | –
CSC12c3cc(C)n(-c4ccc([N+](=O)[O-])cc4)c3CC(C)(C)CN1C(=O)C2Oc1ccccc1 (configuration not stated) | > 100 µM | > 100 µM | – | > 100 µM | – | – | – | > 100 µM | > 100 µM | – | – | > 100 µM | – | > 100 µM | > 100 µM | > 100 µM | > 100 µM | > 100 µM
Cc1ccc2c(c1)C(=C(C#N)C#N)CCCS2(=O)=O | > 100 µM | > 100 µM | – | > 100 µM | – | – | – | > 100 µM | > 100 µM | – | > 100 µM | – | – | > 100 µM | > 100 µM | > 100 µM | > 100 µM | > 100 µM
Oc1c(Br)cc(/C=C/c2ccnc(/C=C/c3cc(Br)c(O)c(Br)c3)c2)cc1Br | > 100 µM | 38.7 µM | – | – | – | – | – | 55.3 µM | 83.9 µM | – | > 100 µM | 41 µM | – | 66.7 µM | > 100 µM | 39.1 µM | 91.3 µM | 52.1 µM
Cc1ccc2c(=O)cc(-c3sccc3C)[nH]c2n1 | > 96 µM | > 59.5 µM | – | – | – | – | – | > 100 µM | > 31.8 µM | – | > 56.4 µM | 3.88 µM | – | – | > 100 µM | > 67.3 µM | 0.359 µM | > 100 µM
CCOCCOCCOCc1nc(C#N)c(N)o1 | > 100 µM | > 100 µM | – | > 100 µM | – | > 100 µM | – | > 100 µM | > 100 µM | – | > 100 µM | > 100 µM | – | > 100 µM | > 100 µM | > 100 µM | – | > 100 µM
COc1ccc(CNc2cnc3cc(N)ccc3n2)cc1 | > 100 µM | > 100 µM | – | > 100 µM | – | > 100 µM | – | > 100 µM | > 100 µM | – | > 100 µM | > 100 µM | – | – | – | – | – | –
O=C1/C(=C/c2cccc(Cl)c2)CCCc2ccccc21 | 31.8 µM | 32.3 µM | – | 36 µM | – | 32.1 µM | – | 31.2 µM | 33.6 µM | – | 33.4 µM | – | – | 46.5 µM | 44.5 µM | 40.2 µM | 31.9 µM | –
CN=C1Nc2ccccc2C(=O)N2CSCC12 (configuration not stated) | > 100 µM | > 100 µM | – | – | – | > 100 µM | – | > 100 µM | > 100 µM | – | > 100 µM | > 100 µM | – | > 100 µM | > 100 µM | > 100 µM | > 100 µM | > 100 µM
FC1(F)[Se]C2C3CCC(C3)C2C1(F)F (configuration not stated) | > 100 µM | > 100 µM | – | – | – | > 100 µM | – | > 100 µM | > 100 µM | – | > 100 µM | > 100 µM | – | – | – | > 100 µM | > 100 µM | > 100 µM
O=c1c2cc(-c3ccccc3)cnc2sn1-c1ccc(Br)cc1 | > 100 µM | > 100 µM | – | > 100 µM | – | > 100 µM | – | > 100 µM | > 100 µM | – | > 100 µM | – | – | > 100 µM | > 100 µM | > 100 µM | > 100 µM | > 100 µM
N#CC(c1ccccc1)N(CCCCCCN(C(=O)c1ccccc1)C(C#N)c1ccccc1)C(=O)c1ccccc1 (configuration not stated) | > 100 µM | > 100 µM | – | 73.8 µM | – | – | – | > 100 µM | > 100 µM | – | > 100 µM | 32.9 µM | – | 63.9 µM | > 100 µM | > 100 µM | > 100 µM | > 100 µM
CC(=O)Nc1ccc2c3c(cc(O)c2c1)N(C(=O)CCCC(=O)N1CC(CCl)c2c1cc(O)c1cc(NC(C)=O)ccc21)CC3CCl (configuration not stated) | > 100 µM | 11.6 µM | – | 0.0325 µM | – | 0.0212 µM | – | 0.276 µM | > 100 µM | – | – | – | – | – | 0.306 µM | < 0.01 µM | – | < 0.01 µM
CC1=NN(c2nc(N)nc(CN3CCOCC3)n2)C(C)(C)C1 | 37.2 µM | > 100 µM | – | > 100 µM | – | 29.1 µM | – | > 100 µM | > 100 µM | – | > 100 µM | > 100 µM | – | > 100 µM | > 100 µM | > 100 µM | – | > 100 µM
COC(=O)[C@]12CC3C=CC1N(C3)C(CBr)c1c2n(S(=O)(=O)c2ccccc2)c2ccccc12 (some centres not stated) | > 100 µM | > 100 µM | – | > 100 µM | – | > 100 µM | – | > 100 µM | > 100 µM | – | – | > 100 µM | – | > 100 µM | > 100 µM | > 100 µM | > 100 µM | –
C=CC(=O)Nc1ccc(NC(=O)C=C)c2c1C(=O)c1ccccc1C2=O | > 100 µM | 29.1 µM | – | > 100 µM | – | 34.6 µM | – | > 100 µM | > 100 µM | – | – | > 100 µM | – | > 100 µM | > 100 µM | – | > 100 µM | > 100 µM
C=C(C)C12CC3CC(/C(=N/O)C(C1)/C3=N\O)[C@@]2(C)O (some centres not stated) | > 100 µM | – | – | > 100 µM | – | > 100 µM | – | > 100 µM | > 100 µM | – | > 100 µM | > 100 µM | – | > 100 µM | – | – | – | –
CSC1=N/C(=C\c2ccc(Cl)cc2)C(=O)N1CN1CCCCC1 | 93.2 µM | > 100 µM | – | > 100 µM | – | > 100 µM | – | > 100 µM | > 100 µM | – | > 100 µM | > 100 µM | – | – | – | > 100 µM | > 100 µM | –
CCOC(=O)Cc1csc(NC(NC(=O)OCC)(C(=O)OCC)C(F)(F)F)n1 (configuration not stated) | > 100 µM | > 100 µM | – | > 100 µM | – | > 100 µM | – | > 100 µM | > 100 µM | – | > 100 µM | > 100 µM | – | > 100 µM | – | > 100 µM | > 100 µM | > 100 µM
COc1ccc(C2SC(N)=Nc3c2c(C)nn3C(=O)c2ccccc2O)cc1OC (configuration not stated) | > 10 µM | > 10 µM | – | > 10 µM | – | – | – | > 10 µM | – | – | > 10 µM | – | – | > 10 µM | > 10 µM | > 10 µM | > 10 µM | > 10 µM
